Results reported in PMC6264278, “Corydaline Inhibits Multiple Cytochrome P450 and UDP-Glucuronosyltransferase Enzyme Activities in Human Liver Microsomes” (Molecules, 2011).
Like-named read-outs stand apart in the source and are kept apart here.

Target: T1, CYP2C9 (Homo sapiens, UniProt P11712)
T1 construct: using pooled human liver microsomes; tissue BD Gentest Co. H161; host or cells: pooled human liver microsomes
Assay: CYP2C9 diclofenac 4-hydroxylation inhibition in pooled human liver microsomes
Type: in vitro ADME
Conditions: for IC50: 10 μM diclofenac, mean ± SD, n = 3
Description: Phenacetin O-deethylase, coumarin 7-hydroxylase, amodiaquine N-deethylase, diclofenac 4-hydroxylase, S-mephenytoin 4-hydroxylase, bufuralol hydroxylase, and midazolam 1’-hydroxylase activities were determined as probe activities for CYP1A2, CYP2A6, CYP2C8, CYP2C9, CYP2C19, CYP2D6, and CYP3A4, respectively, using cocktail incubation and liquid chromatography-tandem mass spectrometry (LC/MS/MS). The incubation mixtures were prepared in a total volume of 200 μL, as follows: pooled human liver microsomes (0.25 mg/mL), 1.3 mM NADPH, 3.3 mM MgCl2, 50 mM potassium phosphate buffer (pH 7.4), and a cocktail of probe substrates and various concentrations of corydaline (1−200 μM). The substrates were used at concentrations approximately equal to their respective Km values: 50 μM phenacetin, 2.5 μM coumarin, 2.5 μM amodiaquine, 10 μM diclofenac, 100 μM S-mephenytoin, 5 μM bufuralol, and 2.5 μM midazolam. After a 3-min pre-incubation period at 37 °C, the reactions were initiated by addition of an NADP generating system and incubated for 20 min at 37 °C in a shaking water bath. After incubation, the reaction was stopped by placement of the tubes on ice and addition of 100 μL of ice-cold methanol containing internal standards (^13C2,^15N-acetaminophen for acetaminophen and N-desethylamodiaquine, d5-7-hydroxycoumarin for 7-hydroxycoumarin, ^13C6-4-hydroxydiclofenac for 4-hydroxydiclofenac, d3-4-hydroxy-mephenytoin for 4-hydroxymephenytoin and hydroxymidazolam, d9-1-hydroxybufuralol for 1-hydroxybufuralol). The incubation mixtures were then centrifuged at 13,000 × g for 5 min. All incubations were performed in triplicate and the mean values were used. […] The reaction was started by addition of a cocktail of CYP probe substrates.
All 7 metabolites produced from the cocktail of CYP isoform-specific substrates were simultaneously determined by LC/MS/MS [25]. The system consisted of a tandem quadrupole mass spectrometer (TSQ Quantum Access, ThermoFisher Scientific, San Jose, CA, USA) coupled with a Nanospace SI-2 LC system. Separation was performed on an Atlantis dC18 column (5 μm, 2.1 mm i.d. ×100 mm, Waters, Milford, MA, USA) using the gradient elution of a mixture of 5% methanol in 0.1% formic acid (mobile phase A) and 95% methanol in 0.1% formic acid (mobile phase B) at a flow rate of 0.25 mL/min: 10% mobile phase B for 1 min, 10% to 95% mobile phase B for 1 min, 95% mobile phase B for 5 min. The column and autosampler temperatures were 50 and 6 °C, respectively. After 1.5 min, the LC eluent was diverted from waste to the mass spectrometer fitted with the electrospray ionization (ESI) source and operated in positive ion mode. […] Quantification was performed by selected reaction monitoring (SRM) of the [M+H]^+ ion and the related product ion for each metabolite. […]
Reactions were initiated by addition of NADPH at 37 °C and stopped after 15 min by placement of the incubation tubes on ice and addition of ice-cold methanol (100 μL) containing an internal standard (2.0 μg/mL ^13C6-4-hydroxydiclofenac for diclofenac, 0.5 μg/mL d3-4-hydroxymephenytoin for mephenytoin, or 0.5 μg/mL d9-1-hydroxy-bufuralol for bufuralol). The incubation mixtures were centrifuged at 13,000 × g for 5 min, and aliquots (5 μL) of the supernatants were analyzed by LC/MS/MS. […] Aliquots (5 μL) were analyzed by LC/MS/MS. […]

T1 sequence (P11712 whole entry): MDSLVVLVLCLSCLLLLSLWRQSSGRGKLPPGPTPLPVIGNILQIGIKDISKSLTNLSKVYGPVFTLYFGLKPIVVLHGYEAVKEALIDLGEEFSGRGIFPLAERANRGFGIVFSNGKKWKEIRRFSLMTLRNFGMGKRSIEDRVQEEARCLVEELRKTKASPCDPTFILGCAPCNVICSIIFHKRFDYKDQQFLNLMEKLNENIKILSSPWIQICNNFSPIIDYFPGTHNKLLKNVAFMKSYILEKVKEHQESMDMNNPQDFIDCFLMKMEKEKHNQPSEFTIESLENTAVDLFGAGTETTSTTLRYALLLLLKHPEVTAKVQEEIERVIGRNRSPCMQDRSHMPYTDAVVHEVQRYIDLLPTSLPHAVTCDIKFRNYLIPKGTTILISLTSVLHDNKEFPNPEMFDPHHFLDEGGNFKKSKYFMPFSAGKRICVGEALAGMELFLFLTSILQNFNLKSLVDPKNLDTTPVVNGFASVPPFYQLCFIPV

inhibition mode, CYP2C9 diclofenac 4-hydroxylation (Lineweaver, Dixon and secondary reciprocal plots): noncompetitive | Ki (human liver microsomes, 1-10 μM diclofenac): 7.1 ± 0.4 µM | Ki at 15 min (pH 7.4, probe diclofenac (1-10 μM), 4-hydroxylation, human liver microsomes, 1-10 μM diclofenac): 7 µM | IC50 (pooled human liver microsomes (H161), read-out: IC50 no preincubation, CYP2C9 diclofenac 4-hydroxylation): 26.2 ± 4.6 µM | IC50 (pre-incubated 30 min with NADPH, read-out: IC50 with preincubation, CYP2C9 diclofenac 4-hydroxylation): 30.6 ± 4.1 µM
Structure (SMILES): COc1cc2c(cc1OC)C1C(C)c3ccc(OC)c(OC)c3CN1CC2 (centres unmarked) [Corydaline, 2,3,9,10-tetramethoxy-13-methyl-5,8,13,13a-tetrahydro-6H-isoquino[3,2-a]isoquinoline]
